Source: publication PMC8207694, “Nucleoside transporter-guided cytarabine-conjugated liposomes for intracellular methotrexate delivery and cooperative choriocarcinoma therapy” (Journal of Nanobiotechnology, 2021)

Key:
[1] = Pharmacokinetic study after intravenous administration; assay type: in vivo, SD rats; details: rats
Description: The advanced Automatic Blood Collection System (Instech, USA) was applied to study the pharmacokinetic feature of various MTX formulations. Female SD rats (200–220 g) were acclimatized at 25 ± 2 °C for 1 week before the experiments. Animals were randomized into 3 groups and each group contained 3 rats. Group I, II, and III were intravenously given free MTX, Lipo@MTX, and Cy-Lipo@MTX respectively at a dose of 10 mg MTX-equivalent/kg body weight. Blood (200 μL) was obtained at 0.25, 0.5, 1, 2, 4, 8, 12, 24, 48, and 72 h through jugular vein after administration. 150 μL of plasma was combined with 450 μL acetonitrile to precipitate proteins, and drug content of samples was analyzed by HPLC. The pharmacokinetic software (DAS 2.0) was used to assess key pharmacokinetic parameters including mean residence time (MRT), area under the curve (AUC), peak plasma concentration (Cmax), half-life (t1/2), and time to maximal plasma concentration (Tmax).

JEG-3 cells [2] = experiment: Apoptosis (FITC Annexin V, flow cytometry); assay type: cell-based, human; details: 1 μg/mL MTX-equivalent, 24 h; control 10.39 ± 2.78%
Description: Apoptosis of JEG-3 cells was detected using the FITC Annexin V Apoptosis Detection Kit I. The cells (10^5/well) were seeded in 6-well plates. Following culture for 24 h, cells were treated with culture medium or MTX formulation-contained culture medium at an equivalent MTX concentration (1 μg/mL) for another 24 h. All other protocols were conducted based on the provided directions. The cells were analyzed by flow cytometry.

JEG-3 tumor models [3] = experiment: Survival of large tumor-bearing mice (Kaplan-Meier); assay type: in vivo; details: mice bearing larger tumors 300-500 mm^3; saline 26 days
Description: (§1) When tumors were 50–100 mm^3 in size, nude mice were intravenously administrated with saline or MTX formulations (free MTX, MTX + Cy-lipid, Lipo@MTX, or Cy-Lipo@MTX, 5 mg MTX-equivalent/kg body weight, each group contained 6 mice) on day 6, 9, 12, 14, 18, and 21. On the 24th day, the mice were sacrificed, and the tumors, as well as the main organs, were excised, weighed, washed three times using saline, and subjected to fixation with 10% neutral buffered formalin. The tumor tissues were collected for H&E, TUNEL, and Ki67 staining. […] The survival of large tumor-bearing mice (300–500 mm^3 in size) was analyzed via Kaplan–Meier analysis (each group contained 5 mice).

[4] = parameters: method as in PMID 22510625; details: liver damage, abdominal pain, gastrointestinal reactions, mucosal damage, bone marrow suppression; cited from earlier work
[5] = Biodistribution of MTX in tumor-bearing mice; assay type: in vivo; details: 2 h post-treatment
Description: JEG-3 tumor-bearing mice were also used for organ distribution studies. Animal groups and dosage were consistent with pharmacokinetic studies. For bio-distribution studies of MTX formulations, three animals per group were sacrificed at 2, 8, and 24 h following treatment, and tumors, lungs, kidneys, hearts, livers, and spleens were isolated, weighed, and frozen. These tissues were then homogenized, spun down for 1 min, rested for 45 min, and combined with 100 µl of 10% trichloroacetic acid solution followed by vortexing for 1 min, adding 5 mL of acetonitrile, and incubating for 10 min. Samples were then spun down for 10 min at 6,000 rpm, and supernatants were isolated, combined with mobile phase, and passed through 0.22 µm membrane filters. Finally, HPLC was applied to estimate the drug content of samples.

[6] = Safety: body weight and H&E of primary organs during antitumor study; assay type: in vivo, mice
Description: Healthy mice were administered the Lipo@MTX or Cy-Lipo@MTX dispersion via tail vein (10 mg MTX-equivalent/kg body weight every three days) for five times (each group contained 3 mice). Saline was injected as a control. After the administration, blood biochemical indices were measured. During the in vivo antitumor studies, the body weight and activity status of mice in each group were monitored for evaluating the side effects of the MTX formulations. After in vivo antitumor studies, the primary organs of each group were harvested for H&E staining.

JEG-3 cells [7] = experiment: Cell cycle analysis (PI, flow cytometry); assay type: cell-based, human; details: 1 μg/mL MTX-equivalent, 24 h; control 5.44 ± 0.97%
Description: For cell cycle analysis, JEG-3 cells (10^5/well) were added to 6-well plates for 24 h and were then treated with culture medium or MTX formulation-contained culture medium at an equivalent MTX concentration (1 μg/mL) for another 24 h. Then, JEG-3 cells were collected (1000 rpm, 5 min) and fixed using 70% ethanol for 8 h at 4℃. After resuspended in PI/RNase Staining buffer for 30 min, the cell cycle was determined with flow cytometry.

JEG-3 tumor models [8] = experiment: In vivo antitumor study; parameters: species or system BALB/c nude mice
Description: as §1

[9] = parameters: method as in PMID 28415433; details: cited from earlier work
JEG-3 cells [10] = experiment: Mitochondrial transmembrane potential (JC-1, CLSM); assay type: cell-based, human; details: 1 μg/mL MTX-equivalent, 24 h
Description: Mitochondrial transmembrane potential changes induced by various MTX formulations were evaluated by the JC-1 probe. Briefly, JEG-3 cells were added to the confocal dish. Following culture for 24 h, the cells were treated with free MTX, MTX + Cy-lipid, Lipo@MTX, or Cy-Lipo@MTX at an equivalent MTX concentration (1 μg/mL) for 24 h. JC-1 solution was exchanged for cold PBS following two JC-1 staining buffer washes, after which samples were assessed by CLSM at λex (488 nm)/λem (530 nm) for green fluorescence and λex (525 nm)/λem (590 nm) for red fluorescence.

[11] = female, Sprague-Dawley (SD), rat, plasma, iv, 10 mg/kg, 10 mg MTX-equivalent/kg

Work on `CN(Cc1cnc2nc(N)nc(N)c2n1)c1ccc(C(=O)N[C@@H](CCC(=O)O)C(=O)O)cc1` [free MTX, Methotrexate] yielded an AUC(0-t) [1, 11] of 62400 ± 21500 ng·h/mL, a Cmax [1, 11] of 13500 ± 1960 ng/mL and a clearance [1, 11] of 1.43 mL/min. The MRT last ([1]; female, Sprague-Dawley (SD), rat, plasma, iv, 10 mg/kg, i.v., 10 mg MTX-equivalent/kg, read-out: MRT(0-t)) was 6.27 ± 2.52 h, the half-life ([1]; female, Sprague-Dawley (SD), rat, plasma, iv, 10 mg/kg, i.v., 10 mg MTX-equivalent/kg, read-out: t1/2β (converted)) was 314 ± 163 min and the concentration at 0.25 h ([1]; female, Sprague-Dawley (SD), rat, plasma, iv, after 0.25 h, i.v., 10 mg/kg, read-out: plasma MTX concentration) was 13500 ± 1960 ng/mL. For the same compound, the concentration at 4 h ([1]; female, Sprague-Dawley (SD), rat, plasma, iv, after 4 h, i.v., 10 mg/kg, read-out: plasma MTX concentration) was 4590 ± 1610 ng/mL, the concentration at 12 h ([1]; female, Sprague-Dawley (SD), rat, plasma, iv, after 12 h, i.v., 10 mg/kg, read-out: plasma MTX concentration) was 1140 ± 490 ng/mL and the concentration at 24 h ([1]; female, Sprague-Dawley (SD), rat, plasma, iv, after 24 h, i.v., 10 mg/kg, read-out: plasma MTX concentration) was 430 ± 360 ng/mL. The Vss ([1]; i.v., 10 mg MTX-equivalent/kg) was 0.58 ± 0.10 mg/kg/(mg/mL), the “apoptotic percentage of JEG-3 cells” value (JEG-3 cells [2]) was 18.03 ± 2.25% and the median survival time (JEG-3 tumor models [3]) was 28 days. For the same compound, the “incidence rate of adverse reactions during systemic administration” value [4] was “more than 30%”, the “main organs of MTX distribution” value [5] was “found in the kidneys and liver” and the “H&E-stained slices of major organs” value ([6]; end of treatment) was “many edematous glomeruli”. For the same compound, the “body weight change during treatment” value ([6]; tumor-bearing mice, 5 mg MTX-equivalent/kg) was “severe weight loss”, the “JEG-3 cells arrested at the S phase” value (JEG-3 cells [7]) was 11.59 ± 1.53% and the tumor volume (JEG-3 tumor models [8]; day 24, 5 mg MTX-equivalent/kg i.v., six treatments, saline 2211.35 ± 236.66) was 1210.14 ± 285.62 mm^3. For the same compound, the tumor weight (JEG-3 tumor models [8]; end of treatment cycle (day 24), saline 3.24 ± 0.60) was 2.35 ± 0.32 g, the “solubility in acidic versus neutral solutions” value [9] was “solubility of MTX in acidic solutions is greater than that in neutral solutions” and the “effect on mitochondrial transmembrane potential (JC-1 red fluorescence)” value (JEG-3 cells [10]) was “a certain destructive effect on the MMP”.
